Test results as given in US6818663B2, “Diaminothiazoles” (Hoffmann-La Roches, priority 2002, dated 2004).

Legend:
human cyclin B-CDK1 = human cyclin B-CDK1 (Homo sapiens, UniProt P06493); test: FlashPlate kinase assay, cyclin B-CDK1, Rb substrate; type: biochemical; settings: recombinant cyclin B-CDK1, Rb phosphorylation, 1 μM ATP
Procedure, shortened: (§1)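 Recombinant human cyclin–CDK complexes, co-expressed in insect cells, phosphorylated His-tagged Rb (aa 386-928) coated on FlashPlates at 10 μg/ml. Reaction used 1 μM ATP plus 4 nM ^33P-ATP and 20 mM MgCl2 for 30 min at room temperature. % inhibition came from scintillation counts against no-enzyme and no-compound wells, and IC50 was the concentration halving radiolabel incorporation.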

human cyclin D1-CDK4 = human cyclin D1-CDK4 (Homo sapiens, UniProt P11802); test: FlashPlate kinase assay, cyclin D1-CDK4, Rb substrate; type: biochemical; settings: recombinant cyclin D1-CDK4, Rb phosphorylation, 1 μM ATP
Sequence of human cyclin D1-CDK4 (P11802 whole entry): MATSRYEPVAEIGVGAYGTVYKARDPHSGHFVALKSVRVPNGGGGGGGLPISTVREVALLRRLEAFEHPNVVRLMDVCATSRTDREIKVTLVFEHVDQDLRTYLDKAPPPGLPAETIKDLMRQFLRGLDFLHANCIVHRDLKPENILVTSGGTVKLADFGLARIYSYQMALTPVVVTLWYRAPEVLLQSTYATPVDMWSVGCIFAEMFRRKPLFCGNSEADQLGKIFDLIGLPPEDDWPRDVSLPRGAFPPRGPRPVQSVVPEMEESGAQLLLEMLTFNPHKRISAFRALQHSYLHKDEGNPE
Sequence of human cyclin D1-CDK4 (P24385 whole entry partner): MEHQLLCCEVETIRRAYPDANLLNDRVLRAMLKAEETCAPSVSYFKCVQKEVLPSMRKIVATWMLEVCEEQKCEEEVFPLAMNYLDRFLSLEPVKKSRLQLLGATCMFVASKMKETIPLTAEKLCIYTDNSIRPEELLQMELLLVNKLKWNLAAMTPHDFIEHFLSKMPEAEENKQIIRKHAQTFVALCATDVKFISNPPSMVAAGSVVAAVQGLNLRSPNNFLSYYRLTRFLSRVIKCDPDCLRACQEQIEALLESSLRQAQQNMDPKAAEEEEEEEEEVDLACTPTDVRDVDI
Procedure, shortened: as §1

[1] = tested on: HCT116, a colorectal carcinoma cell line; test: Tetrazolium dye proliferation assay (MTT assay); type: cell-based; settings: Homo sapiens, HCT-116, HCT116 cells, inhibition of cell proliferation
Description: Proliferation was evaluated by the tetrazolium dye assay according to the procedure of Denizot and Lang (Denizot, F. and Lang, R. J Immunol Methods 1986, 89, 271-277). The cell line used was HCT116, a colorectal carcinoma cell line obtained from the American Type Cell Culture Collection (ATCC; Rockville, Md.). The cells were grown in McCoy's 5A medium supplemented with 10% FCS and L-glutamine.
Cells were plated at the appropriate seeding density to give logarithmic growth over the course of the assay in a 96-well tissue culture plate. Plates were incubated overnight at 37° C. in a humidified incubator with 5% CO2. The next day, test compounds were serially diluted to four times the final concentration in the appropriate medium containing 1.2% DMSO. One-fourth final volume of each dilution was added in duplicate to the plates containing cells. The same volume of 1.2% DMSO in medium was added to a row of “control wells” such that the final concentration of DMSO in each well was 0.3%. Wells to which no cells were added served as the “blank.” Wells to which no inhibitor was added served as “no inhibitor control.” The plates were) returned to the incubator, and at set time points (determined by their growth curves) plates were analyzed as described below.
3-(4,5-dimethylthiazole-2-yl)-2,5-diphenyl-2H-tetrazolium bromide (thiazolyl blue; MTT; Sigma) was added to each well to yield a final concentration of 1 mg/ml. Plates were returned to the incubator for 2.5-3 hours at 37° C. The MTT-containing medium was removed and the resulting formazan metabolite was solubilized in 100% ethanol with shaking for 15 minutes at room temperature. Absorbance readings were taken in a microtiter plate reader (Dynatech and Molecular Devices plate readers were used interchangeably) at a wavelength of 570 nm with a 650 nm reference. Percent inhibition (% INH) is calculated by subtracting the absorbance of the blank well from all wells, then subtracting the ratio of the average absorbance of each test duplicate (SAVE) by the average of the controls (CAVE) from 1.00. The final number is then multiplied by 100 (% INH=(1.00−SAVE/CAVE)×100). The concentration at which 50% inhibition of cell proliferation is obtained (the IC50) is determined from the linear regression of a plot of the logarithm of the concentration versus percent inhibition.

human cyclin E-CDK2 = human cyclin E-CDK2 (Homo sapiens, UniProt P24941); test: FlashPlate kinase assay, cyclin E-CDK2, Rb substrate; type: biochemical; settings: recombinant cyclin E-CDK2, Rb phosphorylation, 1 μM ATP
Procedure, shortened: as §1

Sequence of human cyclin B-CDK1 (P06493 whole entry, the tested form may be a part): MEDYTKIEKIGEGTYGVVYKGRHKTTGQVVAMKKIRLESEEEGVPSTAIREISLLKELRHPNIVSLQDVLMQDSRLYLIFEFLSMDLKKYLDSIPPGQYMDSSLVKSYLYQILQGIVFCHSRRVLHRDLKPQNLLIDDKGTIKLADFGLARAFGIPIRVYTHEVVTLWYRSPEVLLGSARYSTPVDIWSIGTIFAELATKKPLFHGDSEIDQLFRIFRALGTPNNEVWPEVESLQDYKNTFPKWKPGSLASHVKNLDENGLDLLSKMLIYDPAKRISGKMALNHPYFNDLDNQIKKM
Sequence of human cyclin B-CDK1 (P14635 whole entry partner, the tested form may be a part): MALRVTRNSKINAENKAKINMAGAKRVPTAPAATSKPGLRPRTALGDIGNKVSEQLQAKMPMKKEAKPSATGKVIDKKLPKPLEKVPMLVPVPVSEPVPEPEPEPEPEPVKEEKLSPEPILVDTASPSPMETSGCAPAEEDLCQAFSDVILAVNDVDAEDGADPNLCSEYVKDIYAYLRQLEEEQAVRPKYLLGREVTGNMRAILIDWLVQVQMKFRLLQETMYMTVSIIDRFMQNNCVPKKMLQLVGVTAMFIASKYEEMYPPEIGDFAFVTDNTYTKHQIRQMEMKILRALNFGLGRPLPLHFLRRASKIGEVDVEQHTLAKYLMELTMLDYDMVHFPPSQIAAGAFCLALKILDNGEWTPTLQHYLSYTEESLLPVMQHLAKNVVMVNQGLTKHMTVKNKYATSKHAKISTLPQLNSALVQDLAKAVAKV

Row | IC50 (human cyclin B-CDK1) | IC50 (human cyclin D1-CDK4) | IC50 [1] | IC50 (human cyclin E-CDK2) | Compound
1 | 158 nM | 39 nM | 1240 nM | 589 nM | Nc1nc(Nc2ccc(OC3CCNC3)cc2)sc1C(=O)c1cccc(F)c1 (centres unmarked) [Example 45, [4-Amino-2-[4-(pyrrolidin-3-yloxy)-phenylamino]-thiazol-5-yl]-(3-fluoro-phenyl)-methanone]
2 | 1780 nM | 40 nM | 1050 nM | 2890 nM | CN(C)CCOc1ccc(Nc2nc(N)c(C(=O)c3cccc(C4CC4)c3)s2)cc1 [Example 69, [4-Amino-2-[4-(2-dimethylamino-ethoxy)-phenylamino]-thiazol-5-yl]-(3-cyclopropyl-phenyl)-methanone]
3 | 2570 nM | 80 nM | 623 nM | 1900 nM | CCc1cccc(C(=O)c2sc(Nc3ccc(OC[C@@H](C)N(C)C)cc3)nc2N)c1 [Example 63, (R)-[4-Amino-2-[4-(2-dimethylamino-propoxy)-phenylamino]-thiazol-5-yl]-(3-ethyl-phenyl)-methanone]
4 | 432 nM | 41 nM | 1430 nM | 1760 nM | CCNCCOc1ccc(Nc2nc(N)c(C(=O)c3ccc(C)c(F)c3)s2)cc1 [Example 103, [4-Amino-2-[4-(2-ethylamino-ethoxy)-phenylamino]-thiazol-5-yl]-(3-fluoro-4-methyl-phenyl)-methanone; Compound With Acetic Acid]
5 | 883 nM | 26 nM | 738 nM | 1690 nM | CCNCCOc1ccc(Nc2nc(N)c(C(=O)c3cccc(C4CC4)c3)s2)cc1 [Example 102, [4-Amino-2-[4-(2-ethylamino-ethoxy)-phenylamino]-thiazol-5-yl]-(3-cyclopropyl-phenyl)-methanone; Compound With Acetic Acid]
6 | 298 nM | 520 nM | 693 nM | 892 nM | CCNCCOc1ccc(Nc2nc(N)c(C(=O)c3cccc(F)c3)s2)cc1 [Example 131, [4-Amino-2-[4-(2-ethylamino-ethoxy)-phenylamino]-thiazol-5-yl]-(3-fluoro-phenyl)-methanone]
7 | 2180 nM | 32 nM | 2220 nM | 6790 nM | CCN(CC)CCOc1ccc(Nc2nc(N)c(C(=O)c3ccc(OC)c(F)c3)s2)cc1 [Example 125, [4-Amino-2-[4-(2-diethylamino-ethoxy)-phenylamino]-thiazol-5-yl]-(3-fluoro-4-methoxy-phenyl)-methanone]
8 | 2960 nM | 38 nM | 1930 nM | 3140 nM | C[C@H](COc1ccc(Nc2nc(N)c(C(=O)c3cccc(C4CC4)c3)s2)cc1)N(C)C [Example 70, (R)-[4-Amino-2-[4-(2-dimethylamino-propoxy)-phenylamino]-thiazol-5-yl]-(3-cyclopropyl-phenyl)-methanone]
9 | 151 nM | 14 nM | 229 nM | 207 nM | CCCc1cc(C(=O)c2sc(Nc3ccc(OCCN4CCCC4)cc3)nc2N)ccc1O [Example 109, [4-Amino-2-[4-(2-pyrrolidin-1-yl-ethoxy)-phenylamino]-thiazol-5-yl]-(4-hydroxy-3-propyl-phenyl)-methanone; Compound With Acetic Acid]
10 | 261 nM | 19 nM | 327 nM | 175 nM | CCCc1cc(C(=O)c2sc(Nc3ccc(OC4CCN(CC)C4)cc3)nc2N)ccc1O (centres unmarked) [Example 89, [4-Amino-2-[4-(1-ethyl-pyrrolidin-3-yloxy)-phenylamino]-thiazol-5-yl]-(4-hydroxy-3-propyl-phenyl)-methanone; Compound With Acetic Acid]
11 | 1080 nM | 51 nM | 2010 nM | 887 nM | CCN1CCC(Oc2ccc(Nc3nc(N)c(C(=O)c4cccc(C5CC5)c4)s3)cc2)C1 (centres unmarked) [Example 85, [4-Amino-2-[4-(1-ethyl-pyrrolidin-3-yloxy)-phenylamino]-thiazol-5-yl]-(3-cyclopropyl-phenyl)-methanone]
12 | 177 nM | 23 nM | 291 nM | 182 nM | CCCc1cc(C(=O)c2sc(Nc3ccc(OC[C@@H](C)N4CCCC4)cc3)nc2N)ccc1O [Example 110, (R)-[4-Amino-2-[4-(2-pyrrolidin-1-yl-propoxy)-phenylamino]-thiazol-5-yl]-(4-hydroxy-3-propyl-phenyl)-methanone; Compound With Acetic Acid]
13 | 1790 nM | 60 nM | 1060 nM | 4910 nM | COc1cccc(C(=O)c2sc(Nc3ccc(OC[C@@H](C)N4CCCC4)cc3)nc2N)c1 [Example 121, [R]-[4-Amino-2-[4-(2-pyrrolidin-1-yl-propoxy)-phenylamino]-thiazol-5-yl]-(3-methoxy-phenyl)-methanone; Compound With Acetic Acid]
14 | 357 nM | 27 nM | 169 nM | 267 nM | CCCc1cc(C(=O)c2sc(Nc3ccc(OC[C@@H]4CCCN4C)cc3)nc2N)ccc1O [Example 115, (S)-[4-Amino-2-[4-(1-methyl-pyrrolidin-2-ylmethoxy)-phenylamino]-thiazol-5-yl]-(4-hydroxy-3-propyl-phenyl)-methanone Acetate]
15 | 422 nM | 38 nM | 1630 nM | 781 nM | Nc1nc(Nc2ccc(OCCN3CCCC3)cc2)sc1C(=O)c1ccc(O)c(F)c1 [Example 120, [4-Amino-2-[4-(2-pyrrolidin-1-ylethoxy)-phenylamino]-thiazol-5-yl]-(3-fluoro-4-hydroxy-phenyl)-methanone; Compound With Acetic Acid]
16 | 859 nM | 42 nM | 2020 nM | 1200 nM | Nc1nc(Nc2ccc(OC3CCNC3)cc2)sc1C(=O)c1cccc(C2CC2)c1 (centres unmarked) [Example 93, [4-Amino-2-[4-(pyrrolidin-3-yloxy)-phenylamino]-thiazol-5-yl]-(3-cyclopropyl-phenyl)-methanone; Compound With Acetic Acid]
17 | 457 nM | 19 nM | 1730 nM | 2750 nM | CC(C)NCCOc1ccc(Nc2nc(N)c(C(=O)c3ccc4c(c3)OCO4)s2)cc1 [Example 137, [4-Amino-2-[4-(2-isopropylamino-ethoxy)-phenylamino]-thiazol-5-yl]-benzo[1,3]dioxol-5-yl-methanone]
18 | 2990 nM | 22 nM | 402 nM | 930 nM | CCc1cccc(C(=O)c2sc(Nc3ccc(OCCN4CCCC4)cc3)nc2N)c1 [Example 53, [4-Amino-2-[4-(2-pyrrolidin-1-yl-ethoxy)-phenylamino]-thiazol-5-yl]-(3-ethyl-phenyl)-methanone]
19 | 2050 nM | 65 nM | 4590 nM | 1310 nM | Nc1nc(Nc2ccc(OCCN3CCCC3)cc2)sc1C(=O)c1cccc(C(F)(F)F)c1 [Example 128, [4-Amino-2-[4-(2-pyrrolidin-1-yl-ethoxy)-phenylamino]-thiazol-5-yl]-(3-trifluoromethyl-phenyl)-methanone]
20 | 1650 nM | 47 nM | 3970 nM | 6070 nM | CCN(CC)CCOc1ccc(Nc2nc(N)c(C(=O)c3cccc(SC)c3)s2)cc1 [Example 126, [4-Amino-2-[4-(2-diethylamino-ethoxy)-phenylamino]-thiazol-5-yl]-(3-methylsulfanyl-phenyl)-methanone]
